The text below walks through data of patent US20260327235A1, “CRYSTAL FORM OF PYRIMIDO AZACYCLO COMPOUND, AND PREPARATION METHOD THEREFOR AND USE THEREO” (TYK MEDICINES, INC., priority 2023, published 2026).

In general, Cmax refers to the maximum level reached in the sampled fluid or tissue. By Solubility is commonly meant the concentration that dissolves in the medium under given conditions.

In brackets after ≈: the same amount, converted by molar mass. Entries after “also recorded” stand apart in the source; their conditions may differ. Bounds are passed on as bounds.

A short description of data set [1]: Rat pharmacokinetics after single oral administration. The following applies: for In vivo exposure level (in words): compared with free base crystal form I. It counts as in vivo, SD rats.
A short description of data set [2]: Pharmacokinetic studies in animals, summary statements. To be noted: for In vivo exposure levels in animals (in words): summary; for Absorption (in words) / Bioavailability in vivo (in words) / Blood drug concentration distribution (in words) / Stability in vivo (in words): pharmacokinetic studies. It counts as in vivo.
Data set [3] is described as follows: Dog pharmacokinetics after single oral administration. To be noted: compared with free base crystal form I. In kind it is in vivo, dogs.
A short description of data set [4]: Solid state stability study, 7 days. It counts as physicochemical. To be noted: for Purity: 10080 min; for Crystal stability (in words): 60 °C/closed and 40 °C/75% RH; for Initial purity: stability baseline; for Solid-state stability (in words): summary; for HPLC purity (area %) at 168 h: solid state. Here is the method: (§1) HPLC analysis was performed using Agilent HPLC 1260 series instruments.

Data set [5] can be described thus: Rough solubility of free base crystal form I in solvents by visual inspection. It counts as physicochemical. To be noted: room temperature.
A short description of data set [6]: Solubility test in biological media and water at 37 °C (HPLC). It counts as physicochemical. The following applies: for Solubility: calculated using free base. On the procedure:
as §1
The solubility of salt was calculated using free base.

Data set [7] can be described thus: Evaluation of amorphous free base: slurry in solvent, 2 days. The following applies: for Resulting crystal form: room temperature, 2 days. In kind it is physicochemical. Here is the method: 100 mg of the amorphous free base sample obtained in the present invention was weighed and a solvent was added to form a suspension. The mixture was stirred at room temperature for 2 days, and the results are as follows: […]

Where [8] appears, read: gavage, 10 mpk, 0.5% MC + 1% tween 80, plasma, 10 mg/kg.
The mark [9] stands for this setting: FaSSIF (pH = 6.49), 0.5 h, 37 °C, LOQ ~1.0 μg/mL.
[10] abbreviates: FaSSIF (pH = 6.49), solution at 0.5 h.
Where [11] appears, read: FaSSIF (pH = 6.49), solution at 2.0 h.
The mark [12] stands for this setting: FaSSIF (pH = 6.49), solution at 24 h.
The mark [13] stands for this setting: FeSSIF (pH = 5.00), solution at 0.5 h.
[14] abbreviates: FeSSIF (pH = 5.00), solution at 2.0 h.
Where [15] appears, read: FeSSIF (pH = 5.00), solution at 24 h.
The mark [16] stands for this setting: SGF (pH = 1.19), solution at 0.5 h.
The mark [17] stands for this setting: SGF (pH = 1.19), solution at 2.0 h.
The mark [18] stands for this setting: SGF (pH = 1.19), solution at 24 h.
The mark [19] stands for this setting: Water (pH = 5.45), 0.5 h/2 h/24 h, 37 °C, LOQ ~1.0 μg/mL.
Where [20] appears, read: Water (pH = 5.45), solution at 0.5 h.
The mark [21] stands for this setting: Water (pH = 5.45), solution at 2.0 h.
Setting [22] is: Water (pH = 5.45), solution at 24 h.

Take `CCn1ncc2c(Nc3cc(C)[nH]n3)nc([C@H]3CC[C@](OC)(C(=O)N[C@@H](C)c4cnc(-n5cc(F)cn5)cn4)CC3)nc21` [Free base crystal form III]: in data set [1], the “In vivo exposure level (in words)” value is listed as “higher than those of free base crystal form I”. For the same compound, in data set [2], the “In vivo exposure levels in animals (in words)” value (“In vivo exposure levels” for short) is “higher animal exposure levels compared to the free base crystal form I”, the “Absorption (in words)” value is “easy to absorb”, the “Bioavailability in vivo (in words)” value is on record as “high bioavailability” and the “Blood drug concentration distribution (in words)” value was “good blood drug concentration distribution”. Also, the “Stability in vivo (in words)” value in data set [2] is given as “good stability in vivo”. Besides, the “In vivo exposure level (in words)” value in data set [3] is “higher than those of free base crystal form I”. Also, in data set [4] (40 °C/75% RH, 7 days), the XRPD result is “Unchanged” and the Purity is given as 99.253 Area %. Also, in data set [4] (60 °C/Closed, 7 days), the XRPD entry was “Unchanged” and the Purity is 99.212 Area %. Moreover, in data set [4] (7 days), the “Crystal stability (in words)” value was “good”. For the same compound, in data set [4], the Initial purity is listed as 99.316 Area %.

For the compound `CCn1ncc2c(Nc3cc(C)[nH]n3)nc([C@H]3CC[C@](OC)(C(=O)N[C@@H](C)c4cnc(-n5cc(F)cn5)cn4)CC3)nc21` [Free base crystal form I], the AUC0-last in data set [1] (setting [8]) was 1172.00 ng·h/mL. Besides, in data set [1] (setting [8]), the AUCINF was found to be 1197.00 ng·h/mL. For the same compound, the Cmax in data set [1] (setting [8]) turned out to be 158.00 ng/mL. The T1/2 in data set [1] (setting [8]) was 2.69 h. The Solubility is 11100 to 12500 µg/mL in data set [5] (2-Me-THF); 7100 to 8300 µg/mL in data set [5] (Acetone); 4600 to 5000 µg/mL in data set [5] (DCM); 2200 to 2300 µg/mL in data set [5] (EA); 1500 to 1600 µg/mL in data set [5] (IPAc); 41700 to 50000 µg/mL in data set [5] (THF). Moreover, the Solubility in data set [5] (organic solvent or mixture, ACN, read-out: Solubility) was about 800 µg/mL (≈ 1.36 mM). Further, the “Solubility in the remaining solvents (in words)” value in data set [5] (solvents other than DMSO and THF) is “poor solubility”.

Turning to `CCn1ncc2c(Nc3cc(C)[nH]n3)nc([C@H]3CC[C@](OC)(C(=O)N[C@@H](C)c4cnc(-n5cc(F)cn5)cn4)CC3)nc21` [Fumarate crystal form I], the “In vivo exposure level (in words)” value in data set [1] and in data set [3] was “higher than those of free base crystal form I” each time. Moreover, the “In vivo exposure levels” value in data set [2] is given as “excellent in vivo exposure levels; also recorded: higher animal exposure levels compared to the free base crystal form I”. Also, the “Absorption (in words)” value in data set [2] was “easy to absorb”. Besides, the “Bioavailability in vivo (in words)” value in data set [2] was “high bioavailability”. For the same compound, in data set [2], the “Blood drug concentration distribution (in words)” value is reported as “good blood drug concentration distribution”. Moreover, in data set [2], the “Stability in vivo (in words)” value was “good stability in vivo”. Moreover, the Solubility entry in data set [6] (setting [9]) is “<LOQ^1”; in data set [6] (setting [19]), “<LOQ”. In addition, the pH in data set [6] (setting [10]) is reported as 6.48; in data set [6] (setting [11]), 6.54; in data set [6] (setting [12]), 5.91; in data set [6] (setting [13]), 5.01; in data set [6] (setting [14]), 5.03; in data set [6] (setting [15]), 4.93. Further, the pH in data set [6] (setting [16]) was 1.17; in data set [6] (setting [17]), 1.22; in data set [6] (setting [18]), 1.27; in data set [6] (setting [20]), 5.22; in data set [6] (setting [21]), 5.84; in data set [6] (setting [22]) it was 3.50. For the same compound, the “XRPD (24 h)” value in data set [6] (solid form after 24 h in FaSSIF (pH = 6.49)) is “amorphous”. Further, the “Chemical purity change (in words)” value in data set [4] (40 °C/75% RH, 7 days) is “slightly decreases”. Also, the XRPD entry is “Unchanged” in data set [4] (40 °C/75% RH, 7 days) and “Unchanged” in data set [4] (60 °C/Closed, 7 days). In addition, the Purity turned out to be 97.914 Area % in data set [4] (40 °C/75% RH, 7 days) and 98.119 Area % in data set [4] (60 °C/Closed, 7 days). For the same compound, the “Crystal stability (in words)” value in data set [4] (7 days) is “good”. Moreover, the “Stability (in words)” value in data set [4] (closed high temperature condition (60 °C), 7 days) was “good”. The same compound displayed an Initial purity in data set [4] of 98.062 Area %. Further, the “Solid-state stability (in words)” value in data set [4] is reported as “good solid-state stability”.

In the case of `CCn1ncc2c(Nc3cc(C)[nH]n3)nc([C@H]3CC[C@](OC)(C(=O)N[C@@H](C)c4cnc(-n5cc(F)cn5)cn4)CC3)nc21` [Malate crystal form I], the “In vivo exposure level (in words)” value in data set [1] and in data set [3] was “higher than those of free base crystal form I” each time. Besides, the AUC0-last in data set [1] (setting [8]) is 1209.00 ng·h/mL. Moreover, the AUCINF in data set [1] (setting [8]) was determined as 1217.00 ng·h/mL. In data set [2], the “In vivo exposure levels” value is “excellent in vivo exposure levels; also recorded: higher animal exposure levels compared to the free base crystal form I”. The “Absorption (in words)” value in data set [2] is recorded as “easy to absorb”. For the same compound, in data set [2], the “Bioavailability in vivo (in words)” value is given as “high bioavailability”. Further, the “Blood drug concentration distribution (in words)” value in data set [2] is given as “good blood drug concentration distribution”. Further, the “Stability in vivo (in words)” value in data set [2] is on record as “good stability in vivo”. For the same compound, the Solubility result in data set [6] (setting [9]) is “<LOQ”; in data set [6] (FaSSIF (pH = 6.49), 24 h, 37 °C, LOQ ~1.0 μg/mL) it was “<LOQ”; in data set [6] (SGF (pH = 1.19), 0.5 h, 37 °C, 30 min) it was 204.753 µg/mL; in data set [6] (SGF (pH = 1.19), 24 h, 37 °C, 1440 min), 79.977 µg/mL; in data set [6] (setting [19]), “<LOQ”. The pH in data set [6] (setting [10]) is listed as 6.45; in data set [6] (setting [11]), 6.30; in data set [6] (setting [12]) it was 5.61; in data set [6] (setting [13]), 4.95; in data set [6] (setting [14]) it was 4.96; in data set [6] (setting [15]), 4.90. Further, the pH in data set [6] (setting [16]) was 1.27; in data set [6] (setting [17]), 1.29; in data set [6] (setting [18]), 1.33; in data set [6] (setting [20]), 4.76; in data set [6] (setting [21]) it was 4.19; in data set [6] (setting [22]), 3.88. This compound also showed a Maximum solubility in data set [6] (SGF medium, 0.5 hours, 37 °C, 30 min) of 200 µg/mL. In addition, the “XRPD (24 h)” value in data set [6] (solid form after 24 h in FeSSIF (pH = 5.00)) is “amorphous”. Besides, the XRPD entry is listed as “Unchanged” in data set [4] (40 °C/75% RH, 7 days) and “Unchanged” in data set [4] (60 °C/Closed, 7 days). Moreover, the “Crystal stability (in words)” value in data set [4] (7 days) is listed as “good”. Moreover, the Initial purity in data set [4] was found to be 98.772 Area %. Also, the HPLC purity (area %) at 168 h in data set [4] (40 °C/75% RH, 7 days) was determined as 98.7%; in data set [4] (60 °C/Closed, 7 days), 98.8%. In data set [4], the “Solid-state stability (in words)” value was “good solid-state stability”.

As to `CCn1ncc2c(Nc3cc(C)[nH]n3)nc([C@H]3CC[C@](OC)(C(=O)N[C@@H](C)c4cnc(-n5cc(F)cn5)cn4)CC3)nc21` [Amorphous free base], the Resulting crystal form entry in data set [7] (Acetone suspension) is listed as “form III”; in data set [7] (Methanol suspension), “form I”. In addition, the “Stability of amorphous sample (in words)” value in data set [7] (in the solvent) was “unstable and easily transformed into other crystal forms in the solvent”.
